Values of other authors, collected in article PMC5144109 (Analytical Chemistry, 2016).
Entries after “also recorded” stand apart in the source; their conditions may differ. Square brackets hold non-standard residues; d marks the D form. Ends that are not written are not given here.

Assays:
[1] = target: T1, aminopeptidase M (APM) (Sus scrofa, UniProt P15145); details: positive and negative control of the digestion experiments
T1 sequence (P15145 1-963): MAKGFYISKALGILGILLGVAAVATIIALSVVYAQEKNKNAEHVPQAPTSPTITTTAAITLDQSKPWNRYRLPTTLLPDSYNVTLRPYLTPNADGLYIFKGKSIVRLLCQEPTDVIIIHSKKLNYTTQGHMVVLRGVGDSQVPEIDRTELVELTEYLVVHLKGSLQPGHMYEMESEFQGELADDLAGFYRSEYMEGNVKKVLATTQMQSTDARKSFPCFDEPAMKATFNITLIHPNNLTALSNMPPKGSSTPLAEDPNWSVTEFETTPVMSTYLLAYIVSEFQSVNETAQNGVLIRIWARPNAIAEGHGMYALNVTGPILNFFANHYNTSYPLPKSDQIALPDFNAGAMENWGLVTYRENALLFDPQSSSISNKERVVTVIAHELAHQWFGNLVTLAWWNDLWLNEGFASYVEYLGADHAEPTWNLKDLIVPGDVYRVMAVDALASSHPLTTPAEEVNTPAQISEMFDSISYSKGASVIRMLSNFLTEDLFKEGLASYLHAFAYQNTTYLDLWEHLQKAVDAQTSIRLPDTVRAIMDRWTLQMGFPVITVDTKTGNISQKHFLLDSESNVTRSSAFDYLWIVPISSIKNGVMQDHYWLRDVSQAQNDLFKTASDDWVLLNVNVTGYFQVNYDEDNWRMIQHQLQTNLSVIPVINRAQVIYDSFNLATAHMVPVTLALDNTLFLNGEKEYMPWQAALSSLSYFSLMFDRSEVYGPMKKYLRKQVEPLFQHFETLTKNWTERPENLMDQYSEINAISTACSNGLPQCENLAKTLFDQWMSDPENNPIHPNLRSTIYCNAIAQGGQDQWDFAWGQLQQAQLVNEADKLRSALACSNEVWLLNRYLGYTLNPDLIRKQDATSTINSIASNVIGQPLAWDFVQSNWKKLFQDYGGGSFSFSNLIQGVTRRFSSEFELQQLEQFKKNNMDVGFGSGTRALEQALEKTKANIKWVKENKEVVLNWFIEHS

[2] = test system: opioid receptors; details: in mammals

Substance | digestion by APM (control peptides) [1] | potency compared with morphine [2]
Human angiotensin I acetate salt hydrate | is digested by APM | –
Asn-[dW]-Phe-NH2 [NdWFamide] | is not digested by APM; also recorded: known to resist degradation by APM | –
dermorphin | – | higher potency than morphine
